Reference: patent US7091202B2, “4-arylspirocycloalkyl-2-aminopyrimidine carboxamide KCNQ potassium channel modulators” (Bristol-Myers Squibb Company, priority 2004, dated 2006)
pEC50: −log10 of the molar value.

Molecular target: T1, hQ23 (HEK-293 cell line stably transfected with one of the members of the KCNQ family) (Homo sapiens, UniProt O43525+O43526)
T1 construct: expressed in transfected cells; host or cells: HEK-293, stably transfected
Experiment: Thallium flux assay for KCNQ channel blockers (FLIPR, BTC dye)
Assay type: cell-based
Settings: Table 2; thallium flux, HEK-293
Description: Thallium Flux Assay for KCNQ channel blockers. Approximately 20,000 cells/well of an HEK-293 cell line stably transfected with one of the members of the KCNQ family were plated into clear-bottom, black-walled, poly-D-lysine coated, 384 well assay plates in 20 μl/well of low chloride plating medium. Low chloride plating medium was composed of the following: sodium gluconate, 109 mM; potassium gluconate, 5.4 mM; hemi-calcium gluconate, 3.6 mM; magnesium sulfate, 0.8 mM; sodium bicarbonate, 26.2 mM; sodium phosphate monobasic, 1.2 mM; glutamine, 2 mM; glucose, 5 mM; HEPES (pH 7.3) 10 mM, 10× concentration of vitamins (Gibco/LifeTechnologies catalog #11120-052) and 1× concentration of amino acids (Gibco/LifeTechnologies catalog #11130-051).
Following overnight incubation in a 5% CO2 incubator at 37° C., the cells in the plates were loaded with 20 μl/well of a dye loading solution containing the acetomethoxy ester of the thallium-sensitive fluorescent dye BTC, BTC-AM (2 μM) and pluronic acid (0.02% w/v) in chloride free assay buffer. Chloride free assay buffer was composed of the following: sodium gluconate, 140 mM; potassium gluconate, 2.5 mM; hemi-calcium gluconate, 6 mM; hemi-magnesium gluconate, 2 mM; glucose, 5 mM; HEPES (pH 7.3), 10 mM.
Following incubation in the dye loading solution for from 45–90 min at room temperature, the dye loading solution was removed by aspiration and replaced with 40 μl/well of chloride free assay buffer.
Prior to addition to cell plates, test compound and standard compounds were dissolved in DMSO to 3 mM concentration. Compounds were then diluted from the 3 mM stock to 100-fold over the final assay concentration in DMSO. Finally, compounds in DMSO were diluted from 100-fold over the final assay concentration to 5-fold over the final assay concentration in chloride free assay buffer.
Ten μl/well of compounds at 5-fold over the final assay concentration were then added to the cell plates. This represents a 1:5 dilution, yielding the final test concentration. The wells used for test compounds were A1–P20. Wells A21–P22 contained a standard ‘blocker’ and a fully efficacious concentration (positive control). Wells A23–P24 contained chloride free assay buffer containing 1% DMSO (negative control).
Following addition of test compounds, the plates were loaded onto the Molecular Devices FLIPR. The 488 nm line of the argon laser was used to excite the BTC and the emission filter was a 540(+/−30) nm. Images were collected at 1 Hz. Ten seconds of baseline were collected and then the FLIPR was used to add 13 μl/well of a stimulus buffer composed of Tl2SO4, 25 mM; sodium gluconate, 30 mM; potassium sulfate, 50 mM; hemi-calcium gluconate, 6 mM; hemi-magnesium gluconate, 2 mM; glucose, 5 mM; HEPES (pH 7.3), 10 mM in chloride free assay buffer. Images were collected for an additional 60 seconds.
For data analysis, the amplitude of the average of the negative controls was subtracted from all wells. The amplitudes of the test compounds were then compared to the value of four standard deviations of the negative control wells. The lowest concentration of a test compound sufficient to generate a signal amplitude greater than or equal to four standard deviations from the amplitude of the negative controls was defined as the minimal active concentration.
For generating IC50 values, compounds were serially diluted in 1:3 volume increments to produce a 10 point concentration series. IC50 values were calculated by fitting the resulting amplitudes to a single-site logistic equation. IC50 was defined as the concentration of test compound required to yield 50% of the response of the positive control.

T1 sequence (O43526 whole entry): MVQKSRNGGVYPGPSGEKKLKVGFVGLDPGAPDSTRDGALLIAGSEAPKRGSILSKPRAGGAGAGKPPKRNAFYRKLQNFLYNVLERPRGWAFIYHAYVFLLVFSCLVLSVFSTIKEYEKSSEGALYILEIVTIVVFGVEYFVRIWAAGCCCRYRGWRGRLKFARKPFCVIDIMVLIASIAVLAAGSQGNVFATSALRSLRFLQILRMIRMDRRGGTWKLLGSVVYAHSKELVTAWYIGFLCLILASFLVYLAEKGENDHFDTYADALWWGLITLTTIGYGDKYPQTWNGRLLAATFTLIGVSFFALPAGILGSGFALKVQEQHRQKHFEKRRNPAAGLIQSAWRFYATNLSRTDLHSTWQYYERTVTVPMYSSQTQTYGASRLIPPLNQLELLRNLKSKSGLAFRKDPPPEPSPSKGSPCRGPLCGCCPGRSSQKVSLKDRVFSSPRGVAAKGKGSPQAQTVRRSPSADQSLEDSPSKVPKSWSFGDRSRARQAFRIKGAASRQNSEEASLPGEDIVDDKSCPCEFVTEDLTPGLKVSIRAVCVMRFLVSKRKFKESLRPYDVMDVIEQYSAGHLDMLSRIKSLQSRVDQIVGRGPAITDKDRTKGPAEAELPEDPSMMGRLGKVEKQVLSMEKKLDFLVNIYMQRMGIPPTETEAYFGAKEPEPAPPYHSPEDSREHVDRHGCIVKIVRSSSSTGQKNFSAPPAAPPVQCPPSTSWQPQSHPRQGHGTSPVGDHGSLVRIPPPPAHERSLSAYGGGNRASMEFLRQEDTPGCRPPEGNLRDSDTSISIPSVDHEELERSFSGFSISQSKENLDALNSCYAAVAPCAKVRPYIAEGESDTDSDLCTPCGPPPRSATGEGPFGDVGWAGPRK
T1 sequence (O43525 whole entry): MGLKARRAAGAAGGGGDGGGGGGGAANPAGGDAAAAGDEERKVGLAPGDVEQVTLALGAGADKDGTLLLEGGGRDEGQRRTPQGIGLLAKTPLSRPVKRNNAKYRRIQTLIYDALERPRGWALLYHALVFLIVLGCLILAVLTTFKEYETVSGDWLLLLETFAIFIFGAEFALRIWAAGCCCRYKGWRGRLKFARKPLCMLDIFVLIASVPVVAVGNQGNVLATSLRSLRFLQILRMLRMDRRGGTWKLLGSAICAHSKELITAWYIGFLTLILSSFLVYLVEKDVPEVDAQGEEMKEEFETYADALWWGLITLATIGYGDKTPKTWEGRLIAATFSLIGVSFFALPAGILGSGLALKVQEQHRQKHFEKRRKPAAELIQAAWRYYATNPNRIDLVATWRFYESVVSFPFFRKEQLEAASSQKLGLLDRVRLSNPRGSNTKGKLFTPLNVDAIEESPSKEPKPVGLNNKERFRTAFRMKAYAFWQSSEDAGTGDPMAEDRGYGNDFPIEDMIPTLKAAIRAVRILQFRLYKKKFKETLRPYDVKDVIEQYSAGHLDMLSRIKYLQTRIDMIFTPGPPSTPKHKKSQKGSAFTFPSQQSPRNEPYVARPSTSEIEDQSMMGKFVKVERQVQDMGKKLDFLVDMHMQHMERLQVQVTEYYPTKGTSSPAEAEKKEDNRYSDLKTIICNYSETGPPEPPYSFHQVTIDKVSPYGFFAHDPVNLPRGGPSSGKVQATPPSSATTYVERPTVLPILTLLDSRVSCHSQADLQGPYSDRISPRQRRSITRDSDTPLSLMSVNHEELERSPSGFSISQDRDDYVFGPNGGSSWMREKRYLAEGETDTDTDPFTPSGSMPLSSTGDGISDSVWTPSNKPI

`CC1CCN(c2ncc(C(=O)N[C@H](C)c3cccc4ccccc34)c(C3(c4ccccc4)CC3)n2)CC1` [Example 35, 5-pyrimidinecarboxamide, 2-(4-methyl-1-piperidinyl)-N-[(1R)-1-(1-naphthalenyl)ethyl]-4-(1-phenylcyclopropyl)-] gave a pEC50 of 6.67.

Same assay, conditions: hQ23 cells, thallium flux

In order of rising pEC50:
1. CCN(Cc1ccccc1)C(=O)c1cnc(NC2CCCC2)nc1C1(c2ccccc2)CCCC1 [Example 88, 5-pyrimidinecarboxamide, 2-(cyclopentylamino)-N-ethyl-4-(1-phenylcyclopentyl)-N-(phenylmethyl)-]  6.03
2. CN(Cc1ccccc1)C(=O)c1cnc(NC2CCCC2)nc1C1(c2ccccc2)CCCC1 [Example 71, 5-pyrimidinecarboxamide, 2-(cyclopentylamino)-N-methyl-4-(1-phenylcyclopentyl)-N-(phenylmethyl)-]  6.14
3. CCC(C)Nc1ncc(C(=O)NCc2ccc3c(c2)OCO3)c(C2(c3ccccc3)CCCC2)n1 (stereo not shown) [Example 94, 5-pyrimidinecarboxamide, N-(1,3-benzodioxol-5-ylmethyl)-2-[(1-methylpropyl)amino]-4-(1-phenylcyclopentyl)-]  6.52
4. CC1CCCN(c2ncc(C(=O)NC(C)c3ccc(F)cc3)c(C3(c4ccc(Cl)cc4)CCCC3)n2)C1 (stereo not shown) [Example 198, 5-pyrimidinecarboxamide, 4-[1-(4-chlorophenyl)cyclopentyl]-N-[1-(4-fluorophenyl)ethyl]-2-(3-methyl-1-piperidinyl)-]  6.91
5. CC1CCC(Nc2ncc(C(=O)NCc3ccc(Cl)cc3Cl)c(C3(c4ccccc4)CCCC3)n2)CC1 (stereo not shown) [Example 110, 5-pyrimidinecarboxamide, N-[(2,4-dichlorophenyl)methyl]-2-[(4-methylcyclohexyl)amino]-4-(1-phenylcyclopentyl)-]  7.17
6. CC1CCCN(c2ncc(C(=O)NC(C)c3cccc4ccccc34)c(C3(c4ccccc4)CCCC3)n2)C1 (stereo not shown) [Example 97, 5-pyrimidinecarboxamide, 2-(3-methyl-1-piperidinyl)-N-[1-(1-naphthalenyl)ethyl]-4-(1-phenylcyclopentyl)-]  7.72
7. CC1CCN(c2ncc(C(=O)NCc3cc(F)cc(C(F)(F)F)c3)c(C3(c4ccc(Cl)cc4)CCCC3)n2)CC1 [Example 193, 5-pyrimidinecarboxamide, 4-[1-(4-chlorophenyl)cyclopentyl]-N-[[3-fluoro-5-(trifluoromethyl)phenyl]methyl]-2-(4-methyl-1-piperidinyl)-]  7.92
8. CC1CCC(Nc2ncc(C(=O)NCc3cc(F)cc(C(F)(F)F)c3)c(C3(c4ccccc4)CCCC3)n2)CC1 (stereo not shown) [Example 123, 5-pyrimidinecarboxamide, N-[[3-fluoro-5-(trifluoromethyl)phenyl]methyl]-2-[(4-methylcyclohexyl)amino]-4-(1-phenylcyclopentyl)-]  8.00

Same assay, conditions: hQ23 cells, thallium flux assay

In order of rising pEC50:
1. CN1CCC(N(C)c2ncc(C(=O)NCc3ccc(Cl)cc3Cl)c(C3(c4ccc(F)cc4)CCCC3)n2)CC1 [Example 264, 5-pyrimidinecarboxamide, N-[(2,4-dichlorophenyl)methyl]-4-[1-(4-fluorophenyl)cyclopentyl]-2-[methyl(1-methyl-4-piperidinyl)amino]-]  6.55
2. O=C(NCc1cccc2ccccc12)c1cnc(N2CCCC2)nc1C1(c2ccc(F)cc2)CCCC1 [Example 249, 5-pyrimidinecarboxamide, 4-[1-(4-fluorophenyl)cyclopentyl]-N-(1-naphthalenylmethyl)-2-(1-pyrrolidinyl)-]  6.56
3. CC1CCC(Nc2ncc(C(=O)NCc3cccc4ccccc34)c(C3(c4ccc(F)cc4)CCCC3)n2)CC1 (stereo not shown) [Example 248, 5-pyrimidinecarboxamide, 4-[1-(4-fluorophenyl)cyclopentyl]-2-[(4-methylcyclohexyl)amino]-N-(1-naphthalenylmethyl)-]  8.00
4. CC1CCN(c2ncc(C(=O)NCc3cc(F)cc(C(F)(F)F)c3)c(C3(c4ccc(F)cc4)CCCC3)n2)CC1 [Example 278, 5-pyrimidinecarboxamide, 4-[1-(4-fluorophenyl)cyclopentyl]-N-[[3-fluoro-5-(trifluoromethyl)phenyl]methyl]-2-(4-methyl-1-piperidinyl)-]  8.00
